Measured values published in patent US11427567B2, “Imidazolyl pyrimidinylamine compounds as CDK2 inhibitors” (Incyte Corporation, priority 2019, dated 2022).

target: CDK2/Cyclin E1 (Homo sapiens (Human), UniProt P24941); assay: CDK2/Cyclin E1 HTRF enzyme activity assay (Example A); format: biochemical; details: 1 mM ATP
Description: Assays were conducted in white 384-well polystyrene plates in a final reaction volume of 8 μL. […] HTRF signals were read after 1 hour at room temperature on a PHERAstar FS plate reader (BMG Labtech). Data was analyzed with IDBS XLFit and GraphPad Prism 5.0 software using a three or four parameter dose response curve to determine IC50 for each compound.

SMILES	IC50
CS(=O)(=O)N1CCC(Nc2ncc(C(F)(F)F)c(-c3cn(-c4ccc(CN5CCOCC5)cc4Cl)cn3)n2)CC1 [Example 210, 4-(1-(2-Chloro-4-(morpholinomethyl)-phenyl)-1H-imidazol-4-yl)-N-(1-(methyl-sulfonyl)piperidin-4-yl)-5-(trifluoro-methyl)pyrimidin-2-amine]	≤ 50 nM
CN1CCN(Cc2ccc(-n3cnc(-c4nc(NC5CCN(S(C)(=O)=O)CC5)ncc4C(F)(F)F)c3)c(Cl)c2)CC1=O [Example 211, 4-(3-Chloro-4-(4-(2-((1-(methylsulfonyl)-piperidin-4-yl)amino)-5-(trifluoromethyl)-pyrimidin-4-yl)-1H-imidazol-1-yl)benzyl)-1-methylpiperazin-2-one]	≤ 50 nM
CS(=O)(=O)N1CCC(Nc2ncc(C(F)(F)F)c(-c3cn(-c4ccc(CN5CCN6CCCC6C5)cc4Cl)cn3)n2)CC1 (centres unmarked) [Example 212, 4-(1-(2-Chloro-4-((hexahydropyrrolo-[1,2-a]pyrazin-2(1H)-yl)methyl)phenyl)-1H-imidazol-4-yl)-N-(1-(methylsulfonyl)-piperidin-4-yl)-5-(trifluoromethyl)-pyrimidin-2-amine]	≤ 50 nM
CS(=O)(=O)N1CCC(Nc2ncc(C(F)(F)F)c(-c3cn(-c4ccc(CN5CC6CC5CO6)cc4Cl)cn3)n2)CC1 (centres unmarked) [Example 213]	≤ 50 nM
CS(=O)(=O)N1CCC(Nc2ncc(C(F)(F)F)c(-c3cn(-c4ccc(CN5C6COCC5C6)cc4Cl)cn3)n2)CC1 [Example 214, 4-(1-(4-((3-Oxa-6-azabicyclo[3.1.1]-heptan-6-yl)methyl)-2-chlorophenyl)-1H-imidazol-4-yl)-N-(1-(methylsulfonyl)-piperidin-4-yl)-5-(trifluoromethyl)-pyrimidin-2-amine]	≤ 50 nM
CS(=O)(=O)N1CCC(Nc2ncc(C(F)(F)F)c(-c3cn(-c4ccc(CN5C6CCC5COC6)cc4Cl)cn3)n2)CC1 [Example 215, 4-(1-(4-((3-Oxa-8-azabicyclo[3.2.1]-octan-8-yl)methyl)-2-chlorophenyl)-1H-imidazol-4-yl)-N-(1-(methylsulfonyl)-piperidin-4-yl)-5-(trifluoromethyl)-pyrimidin-2-amine]	≤ 50 nM
CS(=O)(=O)N1CCC(Nc2ncc(C(F)(F)F)c(-c3cn(-c4ccc(CN5CC6CCC5CO6)cc4Cl)cn3)n2)CC1 (centres unmarked) [Example 216, 4-(1-(4-((2-Oxa-5-azabicyclo[2.2.2]-octan-5-yl)methyl)-2-chlorophenyl)-1H-imidazol-4-yl)-N-(1-(methylsulfonyl)-piperidin-4-yl)-5-(trifluoromethyl)-pyrimidin-2-amine]	≤ 50 nM
C[C@@H]1CN(S(C)(=O)=O)CC[C@@H]1Nc1ncc(C(F)(F)F)c(-c2cn(-c3ccc(CNCC#N)cc3Cl)cn2)n1 [Example 217, 2-((3-Chloro-4-(4-(2-(((3R,4S)-3-methyl-1-(methylsulfonyl)-piperidin-4-yl)amino)-5-(trifluoromethyl)-pyrimidin-4-yl)-1H-imidazol-1-yl)benzyl)-amino)acetonitrile]	≤ 50 nM
CCNCc1ccc(-n2cnc(-c3nc(N[C@H]4CCN(S(C)(=O)=O)C[C@H]4C)ncc3C(F)(F)F)c2)c(Cl)c1 [Example 218, 4-(1-(2-Chloro-4-((ethylamino)methyl)-phenyl)-1H-imidazol-4-yl)-N-((3R,4S)-3-methyl-1-(methyl-sulfonyl)piperidin-4-yl)-5-(trifluoro-methyl)-pyrimidin-2-amine]	≤ 50 nM
C[C@@H]1CN(S(C)(=O)=O)CC[C@@H]1Nc1ncc(C(F)(F)F)c(-c2cn(-c3ccc(CN4CCC4)cc3Cl)cn2)n1 [Example 219, 4-(1-(4-(Azetidin-1-ylmethyl)-2-chloro-phenyl)-1H-imidazol-4-yl)-N-((3R,4S)-3-methyl-1-(methyl-sulfonyl)piperidin-4-yl)-5-(trifluoro-methyl)pyrimidin-2-amine]	≤ 50 nM
C[C@@H]1CN(S(C)(=O)=O)CC[C@@H]1Nc1ncc(C(F)(F)F)c(-c2cn(-c3ccc(CN(C)C)cc3Cl)cn2)n1 [Example 220, 4-(1-(2-Chloro-4-((dimethylamino)-methyl)phenyl)-1H-imidazol-4-yl)-N-((3R,4S)-3-methyl-1-(methylsulfonyl)-piperidin-4-yl)-5-(trifluoromethyl)-pyrimidin-2-amine]	≤ 50 nM
C[C@@H]1CN(S(=O)(=O)C2CC2)CC[C@@H]1Nc1ncc(C(F)(F)F)c(-c2cn(-c3ccc(CNC4CC4)cc3Cl)cn2)n1 [Example 221, 4-(1-(2-Chloro-4-((cyclopropylamino)-methyl)phenyl)-1H-imidazol-4-yl)-N-((3R,4S)-1-(cyclo-propylsulfonyl)-3-methylpiperidin-4-yl)-5-(trifluoro-methyl)pyrimidin-2-amine]	≤ 50 nM
C[C@@H]1CN(S(=O)(=O)C2CC2)CC[C@@H]1Nc1ncc(C(F)(F)F)c(-c2cn(-c3ccc(CN(C)C)cc3Cl)cn2)n1 [Example 222, 4-(1-(2-Chloro-4-((dimethylamino)-methyl)phenyl)-1H-imidazol-4-yl)-N-((3R,4S)-1-(cyclo-propylsulfonyl)-3-methylpiperidin-4-yl)-5-(trifluoro-methyl)pyrimidin-2-amine]	≤ 50 nM
CNCc1ccc(-n2cnc(-c3nc(N[C@H]4CCN(S(=O)(=O)C5CC5)C[C@H]4C)ncc3C(F)(F)F)c2)c(Cl)c1 [Example 223, 4-(1-(2-Chloro-4-((methylamino)-methyl)phenyl)-1H-imidazol-4-yl)-N-((3R,4S)-1-(cyclo-propylsulfonyl)-3-methylpiperidin-4-yl)-5-(trifluoro-methyl)pyrimidin-2-amine]	≤ 50 nM
CC1CN(Cc2ccc(-n3cnc(-c4nc(N[C@H]5CCN(S(C)(=O)=O)C[C@H]5F)ncc4C(F)(F)F)c3)c(Cl)c2)C1 [Example 224, 4-(1-(2-Chloro-4-((3-methylazetidin-1-yl)methyl)phenyl)-1H-imidazol-4-yl)-N-((3R,4S)-3-fluoro-1-(methylsulfonyl)-piperidin-4-yl)-5-(trifluoromethyl)-pyrimidin-2-amine]	≤ 50 nM
CNCc1ccc(-n2cnc(-c3nc(N[C@@H]4CCN(S(C)(=O)=O)C[C@H]4F)ncc3C(F)(F)F)c2)c(Cl)c1 [Example 225, 4-(1-(2-Chloro-4-((methylamino)-methyl)phenyl)-1H-imidazol-4-yl)-N-((3R,4R)-3-fluoro-1-(methylsulfonyl)-piperidin-4-yl)-5-(trifluoromethyl)-pyrimidin-2-amine]	≤ 50 nM
CNCc1ccc(-n2cnc(-c3nc(NC4CCN(S(C)(=O)=O)CC4)ncc3C#N)c2)c(Cl)c1 [Example 226, 4-(1-(2-Chloro-4-((methylamino)-methyl)phenyl)-1H-imidazol-4-yl)-2-((1-(methylsulfonyl)-piperidin-4-yl)-amino)pyrimidine-5-carbonitrile]	≤ 50 nM
CNCc1ccc(-n2cnc(-c3nc(NC4CCN(S(C)(=O)=O)CC4)ncc3Cl)c2)c(Cl)c1 [Example 227, 5-Chloro-4-(1-(2-chloro-4-((methyl-amino)methyl)-phenyl)-1H-imidazol-4-yl)-N-(1-(methyl-sulfonyl)piperidin-4-yl)pyrimidin-2-amine]	≤ 50 nM
O=S(=O)(C1CC1)N1CCC(Nc2ncc(C(F)(F)F)c(-c3cn(-c4ccc(CN5CCC5)cc4Cl)cn3)n2)CC1 [Example 228, 4-(1-(4-(Azetidin-1-ylmethyl)-2-chlorophenyl)-1H-imidazol-4-yl)-N-(1-(cyclopropylsulfonyl)piperidin-4-yl)-5-(trifluoromethyl)pyrimidin-2-amine]	≤ 50 nM
CCS(=O)(=O)N1CCC(Nc2ncc(C(F)(F)F)c(-c3cn(-c4ccc(CN5CCC5)cc4Cl)cn3)n2)CC1 [Example 229, 4-(1-(4-(Azetidin-1-ylmethyl)-2-chlorophenyl)-1H-imidazol-4-yl)-N-(1-(ethylsulfonyl)piperidin-4-yl)-5-(trifluoromethyl)pyrimidin-2-amine]	≤ 50 nM
O=S(=O)(NC1CC1)N1CCC(Nc2ncc(C(F)(F)F)c(-c3cn(-c4ccc(CN5CCC5)cc4Cl)cn3)n2)CC1 [Example 230, 4-((4-(1-(4-(Azetidin-1-ylmethyl)-2-chlorophenyl)-1H-imidazol-4-yl)-5-(trifluoromethyl)pyrimidin-2-yl)amino)-N-cyclopropylpiperidine-1-sulfonamide]	≤ 50 nM
CS(=O)(=O)N1CCC(Nc2ncc(C(F)(F)F)c(-c3cn(-c4ccc(CO)cc4Cl)cn3)n2)CC1 [Example 231, (3-Chloro-4-(4-(2-((1-(methylsulfonyl)piperidin-4-yl)amino)-5-(trifluoromethyl)pyrimidin-4-yl)-1H-imidazol-1-yl)phenyl)methanol]	≤ 50 nM
CS(=O)(=O)N1CCC(Nc2ncc(C(F)(F)F)c(-c3cn(-c4cccc(C#N)c4CO)cn3)n2)CC1 [Example 232, 2-(Hydroxymethyl)-3-(4-(2-((1-(methylsulfonyl)piperidin-4-yl)amino)-5-(trifluoromethyl)pyrimidin-4-yl)-1H-imidazol-1-yl)benzonitrile]	≤ 50 nM
CS(=O)(=O)N1CCC(Nc2ncc(C(F)(F)F)c(-c3cn(-c4cccc5c4COC5=O)cn3)n2)CC1 [Example 233, 4-(4-(2-((1-(Methylsulfonyl)piperidin-4-yl)amino)-5-(trifluoromethyl)pyrimidin-4-yl)-1H-imidazol-1-yl)isobenzofuran-1(3H)-one]	≤ 50 nM
C[C@@H]1CN(S(C)(=O)=O)CC[C@@H]1Nc1ncc(C(F)(F)F)c(-c2cn(-c3ccc(CO)cc3Cl)cn2)n1 [Example 234, (3-Chloro-4-(4-(2-(((3R,4S)-3-methyl-1-(methylsulfonyl)piperidin-4-yl)amino)-5-(trifluoromethyl)pyrimidin-4-yl)-1H-imidazol-1-yl)phenyl)methanol]	≤ 50 nM
CS(=O)(=O)N1CCC(Nc2ncc(C(F)(F)F)c(-c3cn(-c4ccc(C#N)cc4CO)cn3)n2)CC1 [Example 235, 3-(Hydroxymethyl)-4-(4-(2-((1-(methylsulfonyl)piperidin-4-yl)amino)-5-(trifluoromethyl)pyrimidin-4-yl)-1H-imidazol-1-yl)benzonitrile]	≤ 50 nM
